Laboratory results taken from patent US5541169A, “Azoxy compound” (Kowa Company, Ltd., priority 1992, dated 1996).
Values after ≈ are worked out from the molar mass of the structure shown.

Experiments:
[1] = Stability in ethanol (residual ratio by HPLC); type: physicochemical; details: 50% ethanol, 50% ethanol solution, 0.01%; for remaining at 2160 h: 3 months; for remaining at 288 h: 12 days
Protocol: The residual ratio was determined under the following conditions by the HPLC method.
*Measured in a 50% ethanol solution (sample concentration: 0.01%)
Column: STR ODSM 4.6 × 150 mm
Injection volume: 40 μl
Mobile phase: CH3 CN:H2 O (1:1)
Temperature: room temperature

Microsporum canis = experiment: Minimum inhibitory concentration, agar plate dilution method (Sabouraud dextrose medium); type: cell-based; details: M.c.
Protocol: (§1) The minimum inhibition concentration was assayed by the agar plate dilution method using Sabouraud dextrose medium.

Candida albicans = experiment: as above; type: cell-based; details: C.a.
Protocol: as §1

[2] = system: Trichophyton mentagrophytes; experiment: as above; type: cell-based; details: T.m.
Protocol: as §1

Trichophyton rubrum = experiment: as above; type: cell-based; details: T.r.
Protocol: as §1

[3] = prior-art compounds; cited from earlier work
fungi = details: prior-art compounds; cited from earlier work

Structure (SMILES)	remaining at 2160 h ([1]; 4° C.) [%]	remaining at 2160 h ([1]; 25° C.) [%]	remaining at 2160 h ([1]; 40° C.) [%]	remaining at 2160 h ([1]; pH 4, pH 4, 40° C.) [%]	remaining at 2160 h ([1]; pH 6, pH 6, 40° C.) [%]	remaining at 2160 h ([1]; pH 8, pH 8, 40° C.) [%]	MIC (Microsporum canis) [µg/mL]	MIC (Candida albicans) [µg/mL]	MIC [2] [µg/mL]	MIC (Trichophyton rubrum) [µg/mL]	remaining at 288 h ([1]; 4° C.) [%]	remaining at 288 h ([1]; 25° C.) [%]	remaining at 288 h ([1]; 40° C.) [%]	remaining at 288 h ([1]; pH 4, pH 4, 40° C.) [%]	remaining at 288 h ([1]; pH 6, pH 6, 40° C.) [%]	remaining at 288 h ([1]; pH 8, pH 8, 40° C.) [%]	stability (in words) [3]	antifungal activity (in words) (fungi)
C[C@H](N=[N+]([O-])C=Cc1ccc(OCC#CI)cc1)[C@@H](C)O [5 (2R), 2(R)-3(S)-3-(4-(3-iodo-2-propynyloxy)styryl-ONN-azoxy)-2-butanol]	99.6	99.3	92.7	101	101	83.6	1.6 (≈ 4 µM)	12.5 (≈ 31.2 µM)	0.8 (≈ 2 µM)	1.6 (≈ 4 µM)	–	–	–	–	–	–	–	–
C[C@H](O)[C@H](C)N=[N+]([O-])C=Cc1ccc(OCC#CI)cc1 [5 (2S), 2(S)-3(S)-3-(4-(3-iodo-2-propynyloxy)styryl-ONN-azoxy)-2-butanol]	99.8	97.4	86.1	100	99.1	74.2	1.6 (≈ 4 µM)	6.3 (≈ 15.7 µM)	0.8 (≈ 2 µM)	1.6 (≈ 4 µM)	–	–	–	–	–	–	–	–
CC(=NO)[C@H](C)N=[N+]([O-])/C=C/c1ccc(OCC#CI)cc1 [Control, reference compound]	–	–	–	–	–	–	–	–	–	–	99.3	95.8	96.6	0	79.7	91.4	–	–
CC(=C[N+]([O-])=NC(C)COCC#CI)c1ccc(Cl)cc1 (centres unmarked) [Example 1, 2-(2-(4-chlorophenyl)-1-propenyl-ONN-azoxy)-1-(3-iodo-2-propynyloxy)propan]	–	–	–	–	–	–	1.6 (≈ 3.82 µM)	50 (≈ 119 µM)	0.4 (≈ 0.955 µM)	0.8 (≈ 1.91 µM)	–	–	–	–	–	–	–	–
CC(=C[N+]([O-])=NC(C)C(C)OCC#CI)c1ccccc1Cl (centres unmarked) [Example 2, 3-(2-(2-chlorophenyl)-1-propenyl-ONN-azoxy)-2-(3-iodo-2-propynyloxy)butane]	–	–	–	–	–	–	1.6 (≈ 3.7 µM)	50 (≈ 116 µM)	1.6 (≈ 3.7 µM)	1.6 (≈ 3.7 µM)	–	–	–	–	–	–	–	–
C#CCOc1ccc(C=C[N+]([O-])=NC(C)C(C)O)cc1 (centres unmarked) [Example 3, 3-(4-(2-propynyloxy)styryl-ONN-azoxy)-2-butanol]	–	–	–	–	–	–	0.2 (≈ 0.729 µM)	25 (≈ 91.1 µM)	–	0.2 (≈ 0.729 µM)	–	–	–	–	–	–	–	–
CC(O)C(C)N=[N+]([O-])c1ccc(OCC#CI)cc1 (centres unmarked) [Example 11, 3-(4-(3-iodo-2-propynyloxy)phenyl-ONN-azoxy)-2-butanol]	–	–	–	–	–	–	0.8 (≈ 2.14 µM)	6.3 (≈ 16.8 µM)	1.6 (≈ 4.28 µM)	1.6 (≈ 4.28 µM)	–	–	–	–	–	–	–	–
C[C@H](N=[N+]([O-])c1ccc(OCC#CI)cc1)[C@@H](C)O [Example 17, 2(R)-3(S)-3-(4-(3-iodo-2-propynyloxy)phenyl-ONN-azoxy)-2-butanol]	100	99.4	100	100	99.9	100	0.8 (≈ 2.14 µM)	6.3 (≈ 16.8 µM)	1.6 (≈ 4.28 µM)	1.6 (≈ 4.28 µM)	100	102	99.8	99.7	100	100	–	–
CCCC/C=C/[N+]([O-])=N[C@@H](C)C(C)=O [KA-7367A]	–	–	–	–	–	–	–	–	–	–	–	–	–	–	–	–	unstable	excellent antifungal activity
